For one data set, the system named is mouse embryos. The experiment in a line: Ex utero culture of mouse embryos from E6.5 in supplemented EUCM, proper embryo development per stage. As to the method: E5.5 and E6.5 embryos ex utero culture—Cultures starting with pre-gastrulation (E5.5) and early gastrulation (E6.5) embryos were effected in static culture conditions until the early somite stage. Embryos were dissected out of the uterus and individual embryos were transferred into each well of a 8-wells glass bottom/ibiTreat μ-plates (iBidi; 80827/80826) filled with 250 μl of EUCM. To optimize culturing conditions, different media, oxygen concentrations (5% or 21%), extracellular matrices (Matrigel), supplements (N2/B27), and gas pressures (hyperbaric 2.5 or 5 psi) were tested. Media was pre-heated for an hour in an incubator with 5% CO2 at 37° C. Pre-primitive streak stage embryos (distal and anterior visceral endoderm stage) were chosen for culture in the case of E5.5, and early-primitive streak stage embryos were selected for cultures beginning at E6.5. Only embryos with no evident damage and without Reichert's membrane were cultured. Half a volume of media was replaced every 24 hours. Embryos were transferred into the rotating culture at the 4-7 somite stage (three days for cultures started at E5.5 and two days for cultures started at E6.5) or at the late gastrulation stage using the same conditions described previously for E8.5, with the difference that embryos were maintained in a constant atmosphere of 21% oxygen and 5% CO2. Transfer of the embryos at earlier or later stages results in failure of further development. Dynamic oxygen conditions yielded slightly less efficiency for expanding E6.5-E11 than using constant 21% oxygen (FIGS. 10A-B). This difference could result from oxygen diffusion in static conditions being be less efficient than in roller conditions, and that might be why higher oxygen is needed to be delivered in protocols that include static conditions. To allow further culture of the embryos until the stage (E13.5), oxygen was increased to 95% from E10.5 onwards and at E11.5 the embryos were dissected out of the yolk sac and amnion carefully avoiding rupture of any major yolk sac blood vessels, but keeping the yolk sac and umbilical cord attached to the embryo. Morphological evaluation of mouse embryo development—Assessment of appropriate embryo development was performed based on previously established morphological features [Van Maele-Fabry, G., et al. Toxicol. Vitr. 4, 149-156 (1990); Van Maele-Fabry, G., et al. Int. J. Dev. Biol. 36, 161-167 (1992)]. Only embryos presenting all of the following features were considered as properly developed. Proper development at the morphological level from E5.5/E6.5 to E8.5 was assessed as follows: At E6.5, the embryos are constituted by three cell lineages: the cup-shaped pluripotent epiblast (Epi) and two extra-embryonic lineages, the extraembryonic ectoderm (ExE) and the visceral endoderm (VE). The cavities in the embryonic and extraembryonic compartments are unified to form the pro-amniotic cavity, radial symmetry is broken in the epiblast to initiate specification of the primitive streak. After 1 or 2 days of culture ex utero (depending on the time of culture initiation, E5.5 or E6.5), the embryos reach the neural plate stage equivalent to E7.5, with no allantoic bud or early bud. The amniotic folds fuse to form the amnion, and the chorion develops from the ExE and the extraembryonic mesoderm. These events generate three cavities in the embryo: amniotic, exocoelomic and ectoplacental cavities. A small allantois bud is present in some of the embryos, at the base of the primitive streak, and the anterior ectoderm begins to form the future neural groove. On the following day, cultured embryos present between 4 to 8 pairs of somites with the embryo curved dorsally, the yolk sac and yolk sac blood circulation has been established, the allantois started to fuse with the chorion, head folds are well-formed as well as the invaginating foregut and beating heart. […]

Data set [1] concerns neural tube closure in mouse embryos. The experiment in a line: Teratogenic experiments in mouse embryos cultured ex utero since E7.5. The note with it: 1 mM in culture media from E8.5 to E9.5, n=6. On the procedure:
E7.5 embryo dissection and ex utero culture—Mouse embryos were obtained from non-hormone primed pregnant mice sacrificed by cervical dislocation at E7.5. Subsequently, embryos were dissected out from the uterus in dissection medium pre-equilibrated at 37° C. for 1 hour, consisting of DMEM (GIBCO 11880; includes already 1 mg/mL D-glucose and pyruvate, without phenol red and without L-glutamine) supplemented with 10% Fetal Bovine Serum (Biological Industries; 040131A), sterilized by using a 0.22 μm filter (JetBiofil; FCA-206-250). The embryos were carefully dissected from the decidua and parietal yolk sac leaving the intact ectoplacental cone attached to the egg cylinder. Briefly, the decidua was isolated from the uterine tissue and the tip of the pear-shaped decidua was cut. The decidua was then opened into halves by introducing the forceps adjacent to the embryo in parallel to its long axis and subsequently opening the forceps. Afterwards the embryo was grasped from the decidua and the parietal yolk sac was peeled off the embryo using two forceps. Embryo dissection was performed on a microscope equipped with a Tokai Hit thermo plate at 37° C., within a maximum of 30 minutes to avoid affecting the embryo developmental potential. […] Developmental stage of the embryos was determined according to Downs & Davies^5. […]

Structures are written as SMILES. Entries after “also recorded” stand apart in the source; their conditions may differ.

As for `CC(=O)C(=O)[O-].[Na+]` [sodium pyruvate], the “effect on forebrain growth and forebrain defects” value with mouse embryos (1 mM sodium pyruvate added to EUCM) was “promotes forebrain growth and eliminates forebrain defects”. The “proper embryo development at E7.5” value with mouse embryos (EUCM with additional 4 mg/ml glucose and 1 mM sodium pyruvate since E6.5, stage E7.5) was 8/8 - 100%. Moreover, the “proper embryo development at E8.5 (embryos/total)” value in the data set on mouse embryos (EUCM with additional 4 mg/ml glucose and 1 mM sodium pyruvate since E6.5, stage E8.5) is 7/7 (1 attached). Also, the “proper embryo development at E9.5” value in the data set on mouse embryos (EUCM with additional 4 mg/ml glucose and 1 mM sodium pyruvate since E6.5, stage E9.5) was 6/7 - 85.7%. Also, the “proper embryo development at E10.5” value with mouse embryos (EUCM with additional 4 mg/ml glucose and 1 mM sodium pyruvate since E6.5, stage E10.5) is 6/7 - 85.7%. The “proper embryo development at E11.5” value in the data set on mouse embryos (EUCM with additional 4 mg/ml glucose and 1 mM sodium pyruvate since E6.5, stage E11.5) was 4/7 - 57%. Besides, the “proper embryo development at E12.5” value with mouse embryos (EUCM with additional 4 mg/ml glucose and 1 mM sodium pyruvate since E6.5, stage E12.5) was 4/7 - 57%. In the data set on mouse embryos (additional 4 mg/ml glucose and 1 mM sodium pyruvate in EUCM since E6.5), the “effect on culture efficiency” value is reported as “helps to improve culture efficiency”.

For the compound `CCCC(CCC)C(=O)O` [valproic acid], the “teratogenic effect on neural tube closure” value in data set [1] is reported as “neural tube closure defects; also recorded: teratogenic effects of valproic acid on neural tube closure could be recapitulated”.

The values above are taken from US20240026262A1, “METHODS AND DEVICES FOR EX-UTERO MOUSE EMBRYONIC DEVELOPMENT” (Yeda Research and Development Co. Ltd., priority 2021, published 2024).
